Measured values taken from patent publication US7956190B2, “Benzimidazole amido derivatives as kinase inhibitors” (Hoffmann-La Roche Inc., priority 2007, dated 2011).

System: HCT 116 cells
Experiment: CellTiter-Glo Assay in HCT 116 Cells
Assay type: cell-based
Settings: HCT 116 human colon carcinoma cells, 5 days (120 h) incubation, CellTiter-Glo luminescence, tested in triplicate
Description: CellTiter-Glo™ Assay in HCT 116 Cells
The CellTiter-Glo™ Luminescent Cell Viability Assay (Promega) is a homogeneous method of determining the number of viable cells in culture based on quantitation of the ATP present, which signals the presence of metabolically active cells.
HCT 116 cells (human colon carcinoma, ATCC-No. CCl-247) were cultivated in RPMI 1640 medium with GlutaMAX™ I (Invitrogen, Cat-No. 61870-010), 5% Fetal Calf Serum (FCS, Sigma Cat-No. F4135 (FBS)); 100 Units/ml penicillin/100 μg/ml streptomycin (=Pen/Strep from Invitrogen Cat. No. 15140). For the assay the cells were seeded in 384 well plates, 1000 cells per well, in the same medium. The next day the test compounds were added in various concentrations ranging from 30 μM to 0.0015 μM (10 concentrations, 1:3 diluted). After 5 days the CellTiter-Glo™ assay was done according to the instructions of the manufacturer (CellTiter-Glo™ Luminescent Cell Viability Assay, from Promega). In brief: the cell-plate was equilibrated to room temperature for approximately 30 minutes and than the CellTiter-Glo™ reagent was added. The contents were carefully mixed for 15 minutes to induce cell lysis. After 45 minutes the luminescent signal was measured in Victor 2, (scanning multiwell spectrophotometer, Wallac).
• Medium: RPMI 1640 with GlutaMAX™ I (Invitrogen, Cat-Nr. 61870), 5% FCS (Sigma Cat.-No. F4135), Pen/Strep (Invitrogen, Cat No. 15140). • HCT116 (ATCC-No. CCl-247): 1000 cells in 60 μl per well of 384 well plate (Greiner 781098, μClear-plate white) • After seeding incubate plates 24 h at 37° C., 5% CO2 2nd. Day: Induction (Treatment with Compounds, 10 Concentrations):
In order to achieve a final concentration of 30 μM as highest concentration 3.5 μl of 10 mM compound stock solution were added directly to 163 μl media. Then step e) of the dilution procedure described below, was followed.

Compound	IC50 [µM]
N#Cc1cccc(C(=O)Nc2cccc3[nH]c(-c4c(NCc5ccccn5)cc[nH]c4=O)nc23)c1 [Example A-1, 3-Cyano-N-(2-[2-oxo-4-1 (pyridin-2-ylmethyl)-amino]-1,2-dihydro-pyridin-1H-benzoimidazol-4-yl)-benzamide]	1.36
COc1ccc(C(=O)Nc2cccc3nc(-c4c(NCc5ccccc5)cc[nH]c4=O)[nH]c23)cc1 [Example A-3, N-[2-(4-Benzylamino-2-oxo-1,2-dihydro-pyridin-3-yl)-3H-benzoimidazol-4-yl]-4-methoxy-benzamide]	1 to 15
O=C(Nc1cccc2nc(-c3c(NCc4ccccc4)cc[nH]c3=O)[nH]c12)c1ccccc1 [Example A-4, N-[2-(4-Benzylamino-2-oxo-1,2-dihydro-pyridin-3-yl)-3H-benzoimidazol-4-yl]-benzamide]	1 to 15
O=C(Nc1cccc2nc(-c3c(NCc4ccccn4)cc[nH]c3=O)[nH]c12)c1ccccc1 [Example A-5, N-(2-{2-oxo-4-[(pyridin-2-ylmethyl)-amino]-1,2-dihydro-pyridin-3-yl}-3H-benzoimidazol-4-yl)-benzamide]	1 to 15
COc1ccc(C(=O)Nc2cccc3nc(-c4c(NCc5ccccn5)cc[nH]c4=O)[nH]c23)cc1 [Example A-6, 4-Methoxy-N-(2-{2-oxo-4-[(pyridin-2-ylmethyl)-amino]-1,2-dihydro-pyridin-3-yl}-3H-benzoimidazol-4-yl)-benzamide]	1 to 15
O=C(Nc1cccc2nc(-c3c(NCc4ccccn4)cc[nH]c3=O)[nH]c12)c1ccc(Cl)cc1 [Example A-7, 4-Chloro-N-(2-{2-oxo-4-[(pyridin-2-ylmethyl)-amino]-1,2-dihydro-pyridin-3-yl}-3H-benzoimidazol-4-yl)-benzamide]	1 to 15
COc1ccc(C(=O)Nc2cccc3nc(-c4c(NCc5cccc(Cl)c5)cc[nH]c4=O)[nH]c23)cc1 [Example A-8, N-{2-[4-(3-Chloro-benzylamino)-2-oxo-1,2-dihydro-pyridin-3-yl]-3H-benzoimidazol-4-yl}-4-methoxy-benzamide]	1 to 15
O=C(Nc1cccc2nc(-c3c(NCC(O)c4ccccc4)cc[nH]c3=O)[nH]c12)c1cccc(Cl)c1 (stereo not drawn) [Example A-11, 3-Chloro-N-[2-[4-(2-hydroxy-2-phenyl-ethylamino)-2-oxo-1,2-dihydro-pyridin-3-yl]-3H-benzoimidazol-4-yl]-benzamide]	1 to 15
O=C(Nc1cccc2nc(-c3c(NC[C@@H](O)c4ccccc4)cc[nH]c3=O)[nH]c12)c1ccc(F)cc1 [Example A-12, 4-Fluoro-N-{2-[4-((S)-2-hydroxy-2-phenyl-ethylamino)-2-oxo-1,2-dihydro-pyridin-3-yl]-3H-benzoimidazol-4-yl}-benzamide]	1 to 15
O=C(Nc1cccc2nc(-c3c(NC[C@@H](O)c4ccccc4)cc[nH]c3=O)[nH]c12)c1ccc(C(F)(F)F)cc1 [Example A-15, N-{2-[4-((S)-2-Hydroxy-2-phenyl-ethylamino)-2-oxo-1,2-dihydro-pyridin-3-yl]-3H-benzoimidazol-4-yl}-4-trifluoromethyl-benzamide]	1 to 15
COc1ccccc1C(=O)Nc1cccc2nc(-c3c(NCc4ccccc4)cc[nH]c3=O)[nH]c12 [Example A-16, N-[2-(4-Benzylamino-2-oxo-1,2-dihydro-pyridin-3-yl)-3H-benzoimidazol-4-yl]-2-methoxy-benzamide]	1 to 15
O=C(Nc1cccc2nc(-c3c(NCc4ccccc4)cc[nH]c3=O)[nH]c12)c1ccccc1Cl [Example A-17, N-[2-(4-Benzylamino-2-oxo-1,2-dihydro-pyridin-3-yl)-3H-benzoimidazol-4-yl]-2-chloro-benzamide]	1 to 15

The next lines start with the values.

IC50 [µM]	Compound
1 to 15	O=C(Nc1cccc2nc(-c3c(NCc4ccccc4)cc[nH]c3=O)[nH]c12)c1ccc(Cl)cc1 [Example A-18, N-[2-(4-Benzylamino-2-oxo-1,2-dihydro-pyridin-3-yl)-3H-benzoimidazol-4-yl]-4-chloro-benzamide]
1 to 15	O=C(Cc1ccccc1)Nc1cccc2nc(-c3c(NC[C@@H](O)c4ccccc4)cc[nH]c3=O)[nH]c12 [Example B-1, N-{2-[4-((S)-2-Hydroxy-2-phenyl-ethylamino)-2-oxo-1,2-dihydro-pyridin-3-yl]-3H-benzoimidazol-4-yl}-2-phenyl-acetamide]
1 to 15	O=C(Nc1cccc2nc(-c3c(NCc4cccc(Cl)c4)cc[nH]c3=O)[nH]c12)c1ccccc1 [Example B-2, N-{2-[4-(3-Chloro-benzylamino)-2-oxo-1,2-dihydro-pyridin-3-yl]-3H-benzoimidazol-4-yl}-benzamide]
1 to 15	CC(C)(C)C(=O)Nc1cccc2nc(-c3c(NC[C@@H](O)c4ccccc4)cc[nH]c3=O)[nH]c12 [Example B-3, N-{2-[4-((S)-2-Hydroxy-2-phenyl-ethylamino)-2-oxo-1,2-dihydro-pyridin-3-yl]-3H-benzoimidazol-4-yl}-2,2-dimethyl-propionamide]
1 to 15	O=C(Nc1cccc2nc(-c3c(NC[C@@H](O)c4ccccc4)cc[nH]c3=O)[nH]c12)c1cccc(C(F)(F)F)c1 [Example B-5, N-{2-[4-((S)-2-Hydroxy-2-phenyl-ethylamino)-2-oxo-1,2-dihydro-pyridin-3-yl]-3H-benzoimidazol-4-yl}-3-trifluoromethyl-benzamide]
1 to 15	O=C(COc1ccccc1)Nc1cccc2nc(-c3c(NC[C@@H](O)c4ccccc4)cc[nH]c3=O)[nH]c12 [Example B-6, N-{2-[4-((S)-2-Hydroxy-2-phenyl-ethylamino)-2-oxo-1,2-dihydro-pyridin-3-yl]-3H-benzoimidazol-4-yl}-2-phenoxy-acetamide]
1 to 15	O=C(Nc1cccc2nc(-c3c(NC[C@@H](O)c4ccccc4)cc[nH]c3=O)[nH]c12)C1CC1 [Example B-8, Cyclopropanecarboxylic acid {2-[4-((S)-2-hydroxy-2-phenyl-ethylamino)-2-oxo-1,2-dihydro-pyridin-3-yl]-3H-benzoimidazol-4-yl}-amide]
1 to 15	O=C(Nc1cccc2nc(-c3c(NC[C@@H](O)c4ccccc4)cc[nH]c3=O)[nH]c12)c1ccccc1F [Example B-9, 2-Fluoro-N-{2-[4-((S)-2-hydroxy-2-phenyl-ethylamino)-2-oxo-1,2-dihydro-pyridin-3-yl]-3H-benzoimidazol-4-yl}-benzamide]
1 to 15	O=C(Nc1cccc2nc(-c3c(NCC(O)c4ccccc4)cc[nH]c3=O)[nH]c12)c1ccccc1Cl (stereo not drawn) [Example B-10, 2-Chloro-N-{2-[4-(2-hydroxy-2-phenyl-ethylamino)-2-oxo-1,2-dihydro-pyridin-3-yl]-3H-benzoimidazol-4-yl}-benzamide]
1 to 15	O=C(COc1ccc(Cl)cc1)Nc1cccc2nc(-c3c(NC[C@@H](O)c4ccccc4)cc[nH]c3=O)[nH]c12 [Example B-11, 2-(4-Chloro-phenoxy)-N-{2-[4-((S)-2-hydroxy-2-phenyl-ethylamino)-2-oxo-1,2-dihydro-pyridin-3-yl]-3H-benzoimidazol-4-yl}-acetamide]
1 to 15	N#Cc1cccc(C(=O)Nc2cccc3nc(-c4c(NC[C@@H](O)c5ccccc5)cc[nH]c4=O)[nH]c23)c1 [Example B-12, 3-Cyano-N-{2-[4-((S)-2-hydroxy-2-phenyl-ethylamino)-2-oxo-1,2-dihydro-pyridin-3-yl]-3H-benzoimidazol-4-yl}-benzamide]
1 to 15	COCC(=O)Nc1cccc2nc(-c3c(NC[C@@H](O)c4ccccc4)cc[nH]c3=O)[nH]c12 [Example B-13, N-{2-[4-((S)-2-Hydroxy-2-phenyl-ethylamino)-2-oxo-1,2-dihydro-pyridin-3-yl]-3H-benzoimidazol-4-yl}-2-methoxy-acetamide]
6.92	O=C(Nc1cccc2nc(-c3c(NC[C@@H](O)c4ccccc4)cc[nH]c3=O)[nH]c12)c1cccc(F)c1 [Example B-15, 3-Fluoro-N-{2-[4-((S)-2-hydroxy-2-phenyl-ethylamino)-2-oxo-1,2-dihydro-pyridin-3-yl]-3H-benzoimidazol-4-yl}-benzamide]
1 to 15	O=C(Nc1cccc2nc(-c3c(NC[C@@H](O)c4ccccc4)cc[nH]c3=O)[nH]c12)c1ccc(Cl)cc1Cl [Example B-16, 2,4-Dichloro-N-{2-[4-((S)-2-hydroxy-2-phenyl-ethylamino)-2-oxo-1,2-dihydro-pyridin-3-yl}-3H-benzoimidazol-4-yl]-benzamide]
1 to 15	COc1cccc(C(=O)Nc2cccc3nc(-c4c(NC[C@@H](O)c5ccccc5)cc[nH]c4=O)[nH]c23)c1 [Example B-18, N-{2-[4-((S)-2-Hydroxy-2-phenyl-ethylamino)-2-oxo-1,2-dihydro-pyridin-3-yl]-3H-benzoimidazol-4-yl}-3-methoxy-benzamide]
